Experimental data from US11518783B2, “Peptides having tetrahedral mimicking groups as inhibitors of rhomboid proteases” (priority 2016, dated 2022).
Peptide text beside a SMILES is read from it. * marks the point of attachment. CHO = C-terminal aldehyde in place of the boronate, O=C*; boroAla = C[C@H](N*)B(O)O

Legend:
[1] = test system: other five rhomboid proteases known to reside on the cell surface; experiment: Heterologous cell-based rhomboid cleavage assay, other cell surface rhomboid enzymes and their substrates
Source text: (§1) FIG. 4A-F illustrates RiBn is a non-toxic, selective inhibitor of only PfROM4. A. Chemical structure of one embodiment of RiBn, a peptide of 10 aa with boronate warhead (SEQ ID NO: 3). Ac denotes an N-terminal acetyl moiety, while the C-terminal boronate warhead is on the right. B. Western blot analysis of EBA175 and AMA1 cleavage by PfROM4 in a heterologous cleavage assay. Co-transfected HEK293 cells were conditioned in the presence of absence of the indicated concentrations of RiBn. Cells transfected with AMA1 were conditioned in the presence or absence of the metalloprotease inhibitor (WI) BB-94 to reduce background cleavage by endogenous cellular proteases. N-terminal cleavage products were released into media (anti-GFP, top panels). Lysates were probed for expression of substrate (anti-GFP, middle panel) and enzyme (anti-HA, bottom panel). Quantification of PfROM4 inhibition by RiBn (right panel, mean±s.e.m.). […] Inhibition was analyzed in three independent biological experiments. […] Flow cytometry analysis (calcein AM fluorescence) of the same cells (right panels). […] For data in D and E, toxicity analyses were conducted in three independent biological experiments (once for each assay readout). […]
(§2) Cleavage of substrates and the activity of enzymes was determined in a slightly modified heterologous cleavage assay. […] Two-color quantitative westerns were converted to greyscale.

P. falciparum merozoites = experiment: P. falciparum invasion assay with synchronized schizont-stage parasites; type: cell-based
Protocol: (§3) Inhibitor potency was verified in three independent biological experiments. […] Quantification was conducted once. C.
(§4) Asexual P. falciparum 3d7 parasites (kind gift of Dr David Sullivan, Johns Hopkins School of Public Health) were cultured in human erythrocytes (O-donor, purchased from Interstate Blood Bank, Inc.) under standard conditions. Sorbitol synchronization was performed ˜1/week or as needed for experiments. For invasion assays, schizont-stage parasites were magnetically purified as previously described (MACS Miltenyi Biotec) and incubated at the appropriate parasitemia (0.2% for dose-response curves) in a 96-well plate in the presence or absence of the peptide-warhead inhibitors at 1.5% hematocrit. Flow cytometry analysis for absolute parasitemia determination and growth characterization was performed by removing a small volume of culture, washing cells in 1×PBS, resuspending them in 1×PBS containing 0.1 μg/mL acridine orange and monitoring FL1/FL3 fluorescence on a FACSCalibur instrument (BD Biosciences). Methanol-fixed, acridine orange stained parasitized erythrocytes were imaged on an inverted fluorescence microscope (Nikon) with bandpass filters. Images were overlaid in Photoshop CC (Adobe). All flow cytometry data were analyzed in FlowJo.

PfROM1 = experiment: Heterologous cell-based rhomboid cleavage assay, PfROM1; parameters: species or system P. falciparum; settings: highest RiBn concentration, transfection-based assay
Source text: as §1, §2

HEK293 cells [2] = experiment: Cell cycle analysis of HEK293 cells by flow cytometry (propidium iodine); type: cell-based, human; settings: 24 hours
human rhomboid enzyme = biological target: T1, human rhomboid enzyme (Homo sapiens, UniProt Q9NX52); experiment: Heterologous cell-based rhomboid cleavage assay, human rhomboid enzyme; settings: transfection-based assay, analyzed in parallel
T1 construct: expressed in transfected cells; host or cells: HEK293T (ATCC CRL-11268), pcDNA3.1
T1 sequence (Q9NX52 1-303): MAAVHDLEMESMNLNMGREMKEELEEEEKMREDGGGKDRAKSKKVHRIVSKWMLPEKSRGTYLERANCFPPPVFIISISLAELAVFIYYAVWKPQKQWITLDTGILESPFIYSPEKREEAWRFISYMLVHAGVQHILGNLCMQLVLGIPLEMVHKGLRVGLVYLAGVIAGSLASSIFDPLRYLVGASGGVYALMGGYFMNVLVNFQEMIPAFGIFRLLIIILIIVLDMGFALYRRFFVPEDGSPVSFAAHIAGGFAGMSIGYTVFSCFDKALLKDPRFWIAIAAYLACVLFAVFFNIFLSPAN
Source text: as §1, §2

PfROM4 = experiment: Heterologous cell-based rhomboid cleavage assay in co-transfected HEK293 cells, EBA175 cleavage by PfROM4; parameters: species or system P. falciparum; settings: western of conditioned media
Source text: as §1, §2

[3] = test system: P. falciparum 3d7 parasites; experiment: P. falciparum growth (parasitemia) on human erythrocytes, flow cytometry with acridine orange; type: cell-based; settings: for inhibition of parasite growth: P. falciparum on human red blood cells
Protocol: as §3
FIG. 6A-6C illustrates RiBn cures blood stage cultures of malaria by iteratively inhibiting parasite invasion and retarding growth. A. Blood stage cultures containing 1% well synchronized schizont stage parasitized erythrocytes were cultured in the presence or absence of 0.3 mM RiB, as indicated, and analyzed at various time points via flow cytometry (acridine orange, top panels) and fluorescent microscopy (acridine orange staining, bottom panels). After 18 hours of culturing, RiBn was washed out of one replicate of the RiBn treated cultures and monitored as above, as indicated. […] C. Quantification of absolute parasitemia at various time points in blood stage parasite cultures treated with the indicated concentrations of RiBn. In a-c, growth defect was confirmed in three independent biological experiments, while the parallel washout was conducted once and is shown.
as §4

HEK293 cells [4] = experiment: LIVE/DEAD viability of RiBn-treated HEK293 cells (fluorescence microscopy and flow cytometry); type: cell-based, human; settings: highest concentrations
Source text: as §1, with “Lysates were probed for expression of substrate (anti-GFP, middle panel) and enzyme (anti-HA, bottom panel).” left out
(§5) Cell viability of RiBn-treated HEK293 cells was determined with a LIVE/DEAD Viability/Cytotoxicity Kit (Molecular Probes). Calcein AM and ethidium homodimer-1 stained cells were imaged on an inverted fluorescence microscope (Nikon) with the appropriate bandpass filters. […]

[5] = as above; type: cell-based, human; settings: human, highest RiBn dose, ~24 hours, calcein AM, read-out: cell viability by flow cytometry
Source text: as §1, with “Lysates were probed for expression of substrate (anti-GFP, middle panel) and enzyme (anti-HA, bottom panel).” left out
as §5

human erythrocytes = settings: erythrocytes cultured ~18 hours with RiBn
Protocol: B. Bright-field microscopy (top panel) and flow cytometry analysis (Forward Scatter vs Side Scatter, bottom panel) of erythrocytes cultured in the presence or absence of RiBn for ˜18 hours. Quantification was conducted once.

GlpG = GlpG (Escherichia coli, UniProt P09391); settings: GlpG in living E. coli cells, side-by-side comparison
GlpG, sequence (P09391 whole entry): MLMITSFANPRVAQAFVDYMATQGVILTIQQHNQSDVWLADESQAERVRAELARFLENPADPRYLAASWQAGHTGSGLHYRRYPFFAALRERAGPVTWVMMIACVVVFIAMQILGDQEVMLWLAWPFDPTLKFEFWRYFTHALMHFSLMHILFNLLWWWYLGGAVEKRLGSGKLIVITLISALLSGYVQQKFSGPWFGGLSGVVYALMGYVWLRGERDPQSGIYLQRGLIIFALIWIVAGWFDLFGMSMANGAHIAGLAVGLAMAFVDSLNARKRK
Protocol: F. Inhibition of endogenous GlpG activity in living E. coli cells grown in liquid culture. Δ is the negative control in which GlpG was deleted from the E. coli genome. Peptide inhibitors were added at the indicated concentrations directly to growing cultures. Shown are quantitative infrared anti-flag westerns, with the top band being the TatA-Flag uncut substrate, and the lower band being the cut product. Quantification of cleavage was used to calculate the EC50 concentrations (graph on right, mean±s.e.m.). Inhibition was analyzed in three independent biological experiments, each with a full spectrum of concentrations per compound.
Dose-response curves were analyzed in the R environment. Curve fitting and graphing was performed with the DRC package using data appropriate models. EC50 values are depicted along with the standard error of the fit.

Compound | effect on cell viability or function (translation, glycosylation, trafficking, secretion of substrates) ([1]; transfected HEK293 cells, highest RiBn concentrations) | inhibition of the other five cell surface rhomboid proteases ([1]; transfection-based assay, analyzed in parallel) | maximal inhibition of merozoite invasion (P. falciparum merozoites; first round of infection, flow cytometry) [%] | inhibition of merozoite invasion of red blood cells (P. falciparum merozoites; synchronized cultures, ~24 hours) | inhibition of PfROM1 (PfROM1) | adherence, growth, or cell cycle distribution of treated versus untreated cells (HEK293 cells [2]) | inhibition of the human rhomboid enzyme (human rhomboid enzyme) | inhibition of EBA175 processing by PfROM4 (PfROM4) | inhibition of parasite growth [3] | effect on other parasite stages including egress ([3]; delayed parasites through lifecycle stages) | growth of parasites that invaded in presence of RiBn ([3]; subsequent time points, versus vehicle-treated controls) | effect of washing out RiBn after the first round of invasion ([3]; washout after 18 hours, 0.3 mM) | cell viability in fluorescence-based live/dead cell assay (HEK293 cells [4]) | viability [5] [%] | host cell (red blood cell) viability (human erythrocytes) | increase in potency relative to the aldehyde of the same tetrapeptide (GlpG) [fold] | increase in potency relative to the chloromethylketone of the same tetrapeptide (GlpG) [fold]
CSCC[C@H](NC(=O)[C@H](CO)NC(=O)[C@H](CCCNC(=N)N)NC(=O)[C@H](Cc1ccccc1)NC(=O)[C@H](CCCNC(=N)N)NC(=O)[C@H](CCCCN)NC(C)=O)C(=O)N[C@@H](CCC(N)=O)C(=O)N[C@@H](Cc1ccc(O)cc1)C(=O)N[C@@H](CO)C(=O)N[C@@H](C)B(O)O [RiBn] (Ac-KRFRSMQYS-boroAla) | no apparent effect on cell viability or function | no inhibitory effect | ~50 | dose-dependent inhibition of merozoite invasion | completely unaffected | no apparent change | no inhibitory effect | inhibited EBA175 processing by PfROM4 in a dose-dependent manner | dose-dependent inhibition of parasite growth | minimally or not affected | grew considerably slower than vehicle-treated controls | rescued parasite growth | no change in cell viability | 92.4 | not affecting host cell viability |  | 
Ac-VRMA-B(OH)2 |  |  |  |  |  |  |  |  |  |  |  |  |  |  |  | > 100 | > 400
peptide-aldehyde: same peptide sequence as RiBn but replacing the boronate with an aldehyde moiety (Ac-KRFRSMQYSA-{CHO}; also: aldehyde moiety replacing the boronate, place not given here) [reference compound] |  |  |  |  |  |  |  | completely abolished PfROM4 inhibition | abolished inhibition |  |  |  |  |  |  |  | 
